Reference: PubChem BioAssay (NCI)
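Each compound was tested at five concentrations against cells in 96-well plates for 48 hours. The concentration for 50% growth inhibition is given as GI50. The concentration for full growth arrest is given as TGI.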

How the values were obtained:
Assay in all cases: NCI-60 cell line screen, 48 h
[1] = tested on: A549 NSCLC
[2] = tested on: SNB-75 CNS
[3] = tested on: T-47D breast
[4] = tested on: MDA-MB-231 breast
[5] = tested on: NCI/ADR-RES ovarian
[6] = tested on: HL-60(TB) leukemia
[7] = tested on: SK-MEL-28 melanoma
[8] = tested on: MCF7 breast
[9] = tested on: HCT-15 colon
[10] = tested on: IGROV1 ovarian

Molecule `O=C(O)/C=C\C(=O)Nc1ccc2c(c1)-c1ccccc1C2` has a TGI [1] of over 100 µM, a TGI [2] of over 100 µM and a TGI [3] of over 100 µM. The TGI [4] was over 100 µM, the TGI [5] was over 100 µM and the TGI [6] was over 100 µM. It also gave a TGI [7] of over 100 µM, a TGI [8] of over 100 µM and a TGI [9] of over 100 µM. It also gave a TGI [10] of over 100 µM.

In the case of `COc1cc2cc(NCc3cccc(Cl)c3)nc(C)c2cc1OC`, the GI50 [1] is reported as 3.21 µM, the TGI [1] is reported as 37.6 µM and the GI50 [2] is reported as 2.83 µM. For the same molecule, the TGI [2] was 19.4 µM, the GI50 [3] was 0.459 µM and the TGI [3] was 9.31 µM. It also gave a GI50 [4] of 1.18 µM, a TGI [4] of 16.6 µM and a GI50 [5] of 2.02 µM. For the same molecule, the TGI [5] was 22.3 µM, the GI50 [6] was 2.95 µM and the TGI [6] was 55.9 µM. For the same molecule, the GI50 [7] was 0.865 µM, the TGI [7] was 5.42 µM and the GI50 [8] was 4.72 µM. The TGI [8] was 23 µM, the GI50 [9] was 2.83 µM and the TGI [9] was 19.9 µM. For the same molecule, the GI50 [10] was 1.32 µM and the TGI [10] was 13.9 µM.

In the case of `Nc1c(C(=O)Nc2cccc(Cl)c2)sc2nc3c(cc12)C(=O)CCC3`, the GI50 [1] is reported as 0.42 µM, the TGI [1] is reported as over 100 µM and the GI50 [2] is reported as 0.227 µM. For the same molecule, the TGI [2] was 2.47 µM, the GI50 [3] was 0.422 µM and the TGI [3] was over 100 µM. For the same molecule, the GI50 [4] was 1.88 µM, the TGI [4] was over 100 µM and the GI50 [5] was 0.466 µM. For the same molecule, the TGI [5] was over 100 µM, the TGI [6] was over 100 µM and the GI50 [7] was 0.567 µM. The TGI [7] was over 100 µM, the GI50 [8] was 0.201 µM and the TGI [8] was over 100 µM. For the same molecule, the GI50 [9] was 0.411 µM, the TGI [9] was over 100 µM and the GI50 [10] was 2.28 µM. It also gave a TGI [10] of over 100 µM.

For `CC1CCCCCC(=O)c2c(O)cc(O)cc2CC(=O)O1` (stereo not drawn), the TGI [1] was over 100 µM, the TGI [2] was over 100 µM and the TGI [3] was over 100 µM. The TGI [4] was over 100 µM, the TGI [5] was over 100 µM and the TGI [6] was over 100 µM. It also gave a TGI [7] of over 100 µM, a TGI [8] of over 100 µM and a TGI [9] of over 100 µM. It also gave a TGI [10] of over 100 µM.

In the case of `COC(=O)N[C@H]1CCc2cc(OC)c(OC)c(OC)c2-c2ccc(SC)c(=O)cc21`, the GI50 [1] is reported as under 0.01 µM, the TGI [1] is reported as over 100 µM and the GI50 [2] is reported as under 0.01 µM. The TGI [2] was over 100 µM, the GI50 [3] was over 100 µM and the TGI [3] was over 100 µM. The GI50 [4] was under 0.01 µM, the TGI [4] was 29 µM and the GI50 [5] was 0.0247 µM. It also gave a TGI [5] of over 100 µM, a GI50 [6] of under 0.01 µM and a GI50 [7] of over 100 µM. The TGI [7] was over 100 µM, the GI50 [8] was under 0.01 µM and the TGI [8] was over 100 µM. For the same molecule, the GI50 [9] was under 0.01 µM, the TGI [9] was over 47.3 µM and the GI50 [10] was under 0.01 µM. It also gave a TGI [10] of over 100 µM.

`CN1CCN(Cc2ccc(NC(=O)c3cncc(C#Cc4cnc(N)c5ncccc45)c3)cc2C(F)(F)F)CC1` gave a GI50 [1] of 0.436 µM, a TGI [1] of 2.52 µM and a GI50 [2] of 0.391 µM. The TGI [2] was 1.48 µM, the GI50 [3] was 2.52 µM and the TGI [3] was 39.1 µM. It also gave a GI50 [4] of 0.147 µM, a TGI [4] of 0.71 µM and a GI50 [5] of 0.685 µM. For the same molecule, the TGI [5] was 3.13 µM, the GI50 [6] was 0.0768 µM and the TGI [6] was 0.602 µM. The GI50 [7] was 0.389 µM, the TGI [7] was 1.59 µM and the GI50 [8] was 0.723 µM. For the same molecule, the TGI [8] was 2.92 µM, the GI50 [9] was 0.314 µM and the TGI [9] was 12.7 µM. The GI50 [10] was 0.175 µM and the TGI [10] was 2.58 µM.

With `O=[N+]([O-])c1ccc(C2=NCCO2)cc1` the GI50 [1] was over 100 µM, the TGI [1] was over 100 µM and the GI50 [2] was over 100 µM. For the same molecule, the TGI [2] was over 100 µM, the GI50 [3] was over 100 µM and the TGI [3] was over 100 µM. The GI50 [4] was over 100 µM, the TGI [4] was over 100 µM and the GI50 [5] was over 100 µM. The TGI [5] was over 100 µM, the GI50 [6] was over 100 µM and the TGI [6] was over 100 µM. It also gave a GI50 [7] of over 100 µM, a TGI [7] of over 100 µM and a GI50 [8] of over 100 µM. It also gave a TGI [8] of over 100 µM, a GI50 [9] of over 100 µM and a TGI [9] of over 100 µM. For the same molecule, the GI50 [10] was over 100 µM and the TGI [10] was over 100 µM.

Molecule `C=CC1(C)CCC2C(=CCC3C2(C)CC(O)C(O)C3(C)COC2OC(CO)C(O)C(O)C2O)C1` (stereo not drawn) has a TGI [1] of over 100 µM, a TGI [2] of over 100 µM and a TGI [3] of over 100 µM. For the same molecule, the TGI [4] was over 100 µM, the TGI [5] was over 100 µM and the TGI [6] was over 100 µM. The TGI [7] was over 100 µM, the TGI [8] was over 100 µM and the TGI [9] was over 100 µM. It also gave a TGI [10] of over 100 µM.

Molecule `CC1=C(CCCOC(=O)[C@H](N)CC(C)C)C2=C(C)C3(CC3)[C@@](C)(O)C(=O)C2=C1` has a GI50 [1] of 3.06 µM, a TGI [1] of 30.9 µM and a GI50 [2] of 1.34 µM. It also gave a TGI [2] of 3.05 µM, a GI50 [3] of 1.84 µM and a TGI [3] of 6.53 µM. It also gave a GI50 [4] of 2.03 µM, a TGI [4] of 6.42 µM and a GI50 [5] of 2.14 µM. It also gave a TGI [5] of over 38.8 µM, a GI50 [6] of 2.01 µM and a TGI [6] of 13.2 µM. For the same molecule, the GI50 [7] was 2.11 µM, the TGI [7] was 5.51 µM and the GI50 [8] was 2.73 µM. The TGI [8] was over 87.1 µM, the GI50 [9] was 2.1 µM and the TGI [9] was over 100 µM. It also gave a GI50 [10] of 0.471 µM and a TGI [10] of 6.19 µM.

Molecule `C[C@@H]1CN2[C@H]3[C@@H]1CC[C@]31CCC(=O)O[C@]1(C)[C@H]1CC[C@H]3CCC=C3[C@@H]12` has a GI50 [1] of over 30 µM, a TGI [1] of over 30 µM and a GI50 [2] of over 30 µM. It also gave a TGI [2] of over 30 µM, a GI50 [3] of over 30 µM and a TGI [3] of over 30 µM. The GI50 [4] was over 30 µM, the TGI [4] was over 30 µM and the GI50 [5] was over 30 µM. For the same molecule, the TGI [5] was over 30 µM, the GI50 [6] was over 30 µM and the TGI [6] was over 30 µM. It also gave a GI50 [7] of over 30 µM, a TGI [7] of over 30 µM and a GI50 [8] of over 30 µM. The TGI [8] was over 30 µM, the GI50 [9] was over 30 µM and the TGI [9] was over 30 µM. It also gave a GI50 [10] of over 30 µM and a TGI [10] of over 30 µM.

`ClC1=C(Cl)C(Cl)(C2(Cl)C(Cl)=C(Cl)C(Cl)=C2Cl)C(Cl)=C1Cl` gave a GI50 [1] of 1.87 µM, a TGI [1] of 4.16 µM and a GI50 [2] of 1.63 µM. For the same molecule, the TGI [2] was 4.46 µM, the GI50 [3] was 0.184 µM and the TGI [3] was 0.539 µM. It also gave a GI50 [4] of 0.383 µM, a TGI [4] of 1.42 µM and a GI50 [5] of 0.976 µM. It also gave a TGI [5] of 5.61 µM, a GI50 [6] of 0.206 µM and a TGI [6] of 0.549 µM. It also gave a GI50 [7] of 0.279 µM, a TGI [7] of 0.847 µM and a GI50 [8] of 0.241 µM. It also gave a TGI [8] of 0.921 µM, a GI50 [9] of 0.214 µM and a TGI [9] of 0.552 µM. The GI50 [10] was 1.48 µM and the TGI [10] was 3.16 µM.

`CC(=O)OCC1C(=O)OCC1C(=O)N1Cc2cc3ccccc3nc2C1` (stereo not drawn) gave a TGI [1] of 30.6 µM, a TGI [2] of 14.9 µM and a TGI [3] of 5.69 µM. It also gave a TGI [4] of 19.9 µM, a TGI [5] of 7.56 µM and a TGI [6] of 11.9 µM. The TGI [7] was 7.07 µM, the TGI [8] was 3.14 µM and the TGI [9] was 6.99 µM. The TGI [10] was 24 µM.

In the case of `C[N+]1([O-])C2CCC1CC(OC(=O)C(CO)c1ccccc1)C2` (stereo not drawn), the TGI [1] is reported as over 100 µM, the TGI [2] is reported as over 100 µM and the TGI [3] is reported as over 100 µM. For the same molecule, the TGI [4] was over 100 µM, the TGI [5] was over 100 µM and the TGI [6] was over 100 µM. For the same molecule, the TGI [7] was over 100 µM, the TGI [8] was over 100 µM and the TGI [9] was over 100 µM. The TGI [10] was over 100 µM.

With `N#CC1=C(N)Oc2c(sc3c(Br)cccc23)C1c1ccc([N+](=O)[O-])cc1` (stereo not drawn) the GI50 [1] was 0.177 µM, the TGI [1] was 13.5 µM and the GI50 [2] was 0.0595 µM. The TGI [2] was 8.41 µM, the GI50 [3] was 0.84 µM and the TGI [3] was 25.3 µM. The GI50 [4] was 0.514 µM, the TGI [4] was 9.67 µM and the GI50 [5] was 0.0398 µM. For the same molecule, the TGI [5] was 8.37 µM, the GI50 [6] was 0.0816 µM and the TGI [6] was 1.15 µM. The GI50 [7] was 2.66 µM, the TGI [7] was 21 µM and the GI50 [8] was 0.151 µM. It also gave a TGI [8] of 11.6 µM, a GI50 [9] of 0.0948 µM and a TGI [9] of 10.5 µM. For the same molecule, the GI50 [10] was 0.33 µM and the TGI [10] was 18.4 µM.
